Experiments:
p38α = p38α (Homo sapiens, UniProt Q16539); assay: Fluorescence polarization; type: binding; conditions: p38 Kiapp
JNK1 = JNK1 (Homo sapiens, UniProt P45983); assay: Fluorescence polarization; type: binding; conditions: JNK1 Kiapp
[1] = tested on: AP-1 promoter mediated transcription; type: cell-based; conditions: 1 μM, + PMA, 6 h
ERK2 = ERK2 (Homo sapiens, UniProt P28482); assay: Fluorescence polarization; type: binding; conditions: ERK2 Kiapp, Table 2, different electron withdrawing groups at C2 or cyclopentenone scaffold
ERK2, sequence (P28482 whole entry): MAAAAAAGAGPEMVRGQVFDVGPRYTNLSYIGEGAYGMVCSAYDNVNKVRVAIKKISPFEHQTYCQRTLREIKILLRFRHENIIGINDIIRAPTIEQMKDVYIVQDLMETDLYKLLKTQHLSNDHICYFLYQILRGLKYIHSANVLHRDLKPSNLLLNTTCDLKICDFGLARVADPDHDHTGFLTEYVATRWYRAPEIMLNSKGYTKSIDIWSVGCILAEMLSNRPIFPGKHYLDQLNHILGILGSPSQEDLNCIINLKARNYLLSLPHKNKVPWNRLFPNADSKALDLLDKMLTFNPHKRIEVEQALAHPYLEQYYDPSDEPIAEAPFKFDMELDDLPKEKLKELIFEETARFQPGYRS

[2] = Table 2, different electron withdrawing groups at C2 or cyclopentenone scaffold

p38α, sequence (Q16539 whole entry): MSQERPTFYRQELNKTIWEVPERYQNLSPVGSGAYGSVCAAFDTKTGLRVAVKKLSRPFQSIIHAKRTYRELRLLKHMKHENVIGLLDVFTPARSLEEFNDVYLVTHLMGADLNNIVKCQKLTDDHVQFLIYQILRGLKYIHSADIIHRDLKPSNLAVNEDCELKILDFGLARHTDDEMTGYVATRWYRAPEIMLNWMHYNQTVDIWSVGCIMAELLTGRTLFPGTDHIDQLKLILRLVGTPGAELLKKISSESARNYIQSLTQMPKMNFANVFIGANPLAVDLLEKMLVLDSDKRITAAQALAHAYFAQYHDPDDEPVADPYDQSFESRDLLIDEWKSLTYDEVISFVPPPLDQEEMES
JNK1, sequence (P45983 whole entry): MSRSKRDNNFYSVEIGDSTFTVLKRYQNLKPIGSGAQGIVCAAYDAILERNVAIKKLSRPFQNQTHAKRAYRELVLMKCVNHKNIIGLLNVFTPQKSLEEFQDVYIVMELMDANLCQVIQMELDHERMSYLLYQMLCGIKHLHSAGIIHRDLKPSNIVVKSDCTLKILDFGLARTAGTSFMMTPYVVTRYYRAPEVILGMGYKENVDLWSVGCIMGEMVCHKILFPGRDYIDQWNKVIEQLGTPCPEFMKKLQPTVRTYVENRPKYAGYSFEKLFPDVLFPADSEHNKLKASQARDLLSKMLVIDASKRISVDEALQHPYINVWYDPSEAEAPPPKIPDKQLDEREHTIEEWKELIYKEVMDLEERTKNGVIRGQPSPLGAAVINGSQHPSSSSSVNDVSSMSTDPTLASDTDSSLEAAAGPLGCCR

Compound | Ki (p38α; Table 4, C4-extended compounds) [µM] | Ki (JNK1; Table 4, C4-extended compounds) [µM] | effect on AP-1 mediated transcription [1] | Ki (ERK2) [µM] | Ki (p38α; [2]) [µM] | Ki (JNK1; [2]) [µM]
Cc1cc(-c2cccc(-n3cc(COC(=O)[C@]4(C)C=C(C(=O)OC(C)(C)C)C(=O)CC4)nn3)c2)c(C)c2c1CNCC2 [33S] | 2.8 ± 0.7 | 8.8 ± 2.6 |  |  |  | 
O=C(Nc1ccc2[nH]nc(-c3ccncc3)c2c1)[C@@H]1CCN(CC(=O)N2CCN(c3ccc(-c4ncccn4)cc3)CC2)C1 [SCH772984] |  |  | attenuate |  |  | 
CC1(C)C=C(C(=O)OC(C)(C)C)C(=O)C1 [compound 26] |  |  |  | 169 ± 8.7 | 27.4 ± 3.3 | > 200
COC(=O)C1=CC(C)(C)CC1=O [compound 25] |  |  |  | 136 ± 14.1 | 28 ± 2.4 | > 200
C#CCCOC(=O)[C@]1(C)C=C(C(=O)OC(C)(C)C)C(=O)CC1 [29S] | 1.1 ± 0.1 | 2.4 ± 0.3 |  |  |  | 
Oc1ccc(-c2nc(-c3ccncc3)c(-c3ccc(F)cc3)[nH]2)cc1 [SB202190] |  |  | attenuate |  |  | 

From paper PMC11452651 (Nature Communications, 2024)
